Measurements: patent publication US8853228B2, “Heterocyclic analogs of propargyl-linked inhibitors of dihydrofolate reductase” (University of Connecticut, priority 2011, dated 2014)
≈ marks a conversion by molar mass, not a printed value. Like-named read-outs stand apart in the source and are kept apart here.

What was measured:
TgDHFR = TgDHFR (Toxoplasma gondii, UniProt Q07422, DEL43-70); assay: TgDHFR enzyme inhibition assay; assay type: biochemical
Description: These residues were removed, leaving a five residue loop region characteristic of several other species of DHFR.
(§1) Enzyme and inhibitor were allowed to incubate for 5 min before adding dihydrofolate to initiate the reaction. Enzyme assays were performed at least four times. IC50 values and their standard deviations were calculated in the presence of varying concentrations of inhibitor near the IC50 concentration.

C. glabrata = assay: Antifungal assay (MIC, Alamar Blue); assay type: cell-based, Candida glabrata; details: for MIC (Cg): YM media; for antifungal MIC C. glabrata: cell growth inhibition (Table 7 conditions)
Description: Antifungal assays were performed using C. glabrata as a suspension in 50% glycerol at −78° C. For susceptibility testing, a streak of stock culture was made on SDA agar and grown at 30° C. for 48 h. One pure colony of the test organism was recovered from the plate, suspended in appropriate media and grown in a 5 mL shake flask culture. A sample of the shake flask culture was diluted to 1×10^5 cells/mL in media and added to 96-well test plates (100 μL per well) containing test compounds dispensed in DMSO (1 μL). Amphotericin and ketoconazole were used as controls. After an incubation period determined from the strain specific doubling time, Alamar Blue (10 μL) was added, allowed to incubate; each well was scored for dye reduction.
Several representative compounds were also evaluated in thymidine-depleted media. It has been shown that high levels of thymidine interfere with accurate susceptibility testing of antifolates. To compensate for this, antifolates are frequently evaluated in a controlled minimal media with a low thymidine concentration. […] In addition, the compounds were also evaluated for mammalian cell toxicity using MCF-10 and HepG2 cell lines. Cellular selectivity is reported as the IC50 value for the MCF-10 human cell line divided by the MIC value (μg/mL) (Table 8).

ChDHFR-TS = ChDHFR-TS (Cryptosporidium hominis, UniProt Q27552); assay: ChDHFR enzyme inhibition assay; assay type: biochemical
Chain of ChDHFR-TS (Q27552 1-521): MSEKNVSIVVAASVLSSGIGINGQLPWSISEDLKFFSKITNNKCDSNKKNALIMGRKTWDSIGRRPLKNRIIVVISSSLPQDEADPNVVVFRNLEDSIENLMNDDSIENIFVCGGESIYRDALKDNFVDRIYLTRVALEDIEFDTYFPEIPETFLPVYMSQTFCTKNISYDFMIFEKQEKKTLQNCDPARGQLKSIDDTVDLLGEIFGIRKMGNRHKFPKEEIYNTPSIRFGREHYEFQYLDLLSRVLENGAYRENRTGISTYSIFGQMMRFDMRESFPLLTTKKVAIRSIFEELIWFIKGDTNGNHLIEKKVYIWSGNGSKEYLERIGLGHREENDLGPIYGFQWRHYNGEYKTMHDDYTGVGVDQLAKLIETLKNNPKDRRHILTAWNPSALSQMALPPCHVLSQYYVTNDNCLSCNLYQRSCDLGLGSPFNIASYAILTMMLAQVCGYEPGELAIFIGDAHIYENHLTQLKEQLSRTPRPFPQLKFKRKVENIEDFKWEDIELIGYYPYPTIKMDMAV
Description: as §1
Compounds were evaluated in spectrophotometric enzyme assays using ChDHFR-TS and hDHFR. Inhibition constants (IC50) were measured (see Table 4). […] The compound abbreviations in Table 4 refer to the following compounds: […]

CgDHFR = CgDHFR (Candida glabrata (strain ATCC 2001 / BCRC 20586 / JCM 3761 / NBRC 0622 / NRRL Y-65 / CBS 138) (Yeast) (Nakaseomyces glabratus), UniProt Q6FPH0); assay: biochemical
Chain of CgDHFR (Q6FPH0 1-217): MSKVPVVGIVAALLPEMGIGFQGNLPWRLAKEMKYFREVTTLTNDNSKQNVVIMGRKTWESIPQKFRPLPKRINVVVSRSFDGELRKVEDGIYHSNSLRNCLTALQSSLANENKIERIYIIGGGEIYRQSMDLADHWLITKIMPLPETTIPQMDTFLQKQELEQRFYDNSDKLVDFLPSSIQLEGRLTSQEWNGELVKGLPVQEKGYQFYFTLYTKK
From the text: CgDHFR: The gene coding CgDHFR was amplified by PCR from C. glabrata genomic DNA obtained from ATCC. The gene was inserted in a pET41 vector that includes a C-terminal histidine tag for nickel affinity chromatography. E. coli cells were transformed and the resulting plasmid was verified by sequencing. The protein was expressed in E. coli BL21(DE3) cells with isopropyl β-D-thiogalactoside induction. Following growth, the cells were lysed with BugBuster (Novagen) and centrifuged; the supernatant was loaded on a Ni-NTA column. The column was washed with 20 mM Tris (pH 8.0)/0.4 M NaCl and the protein was eluted using a gradient of 20 mM Tris (pH 8.0), 0.3 M NaCl, 20% glycerol, 0.1 mM EDTA, 2 mM DTT, 250 mM imidazole. Fractions containing CgDHFR were identified by SDS-PAGE, combined and desalted using a PD-10 column with a buffer containing 20 mM Tris pH 8.0, 20% glycerol, 0.1 mM EDTA and 2 mM DTT. The protein was concentrated to 13 mg/mL.
as §1

Streptococcus pyogenes = assay: Antibacterial MIC, broth microdilution with Alamar Blue; assay type: cell-based; details: for Selectivity S. pyogenes: IC50 (MCF10)/MIC (pathogen); for MIC S. pyogenes: Table 6
Description: (§2) For susceptibility testing, 10 μL of glycerol stock was suspended in a 10 mL shake flask culture of chemically defined Isosensitest broth (Oxoid) supplemented with 2% w/v glucose. A sample of the shake flask culture was diluted to 1×10^6 cells/mL in media and added to 96-well test plates (100 μL per well) containing test compounds dispensed in DMSO (2 μL). After an incubation period (30° C.) determined from the strain specific doubling time, a 0.03% w/v aqueous solution of resazurin (10 μL) was added and the plates were allowed to incubate; each well was then scored for dye reduction.

MCF-10 cells = assay: Mammalian cell toxicity, MCF-10; assay type: cell-based, human; details: cytotoxicity
Description: (§3) Adherent cell lines were maintained in Eagle's Minimal Essential Media (Sigma-Aldrich, St. Louis, Mo., USA) with 2 mM glutamine and Earle's Balanced Salt Solution (HyClone, Logan, Utah, USA) adjusted to contain 1.5 g/L sodium bicarbonate, 0.1 mM non-essential amino acids, 1 mM sodium pyruvate and 10% fetal calf serum. Fetal calf serum used in these assays was lot matched throughout. […] Toxicity assays were conducted between passages 10-20. Target compound toxicity was measured by incubating the test compound with the cells for 4 h, washing the cells and finally treating the cells with Alamar Blue. After 12-24 h, the fluorescence of the reduced dye was measured. Fluorescence intensity as a function of test compound concentration was fit to the Fermi equation, using non-linear least squares regression analysis, to estimate IC50 values.

S. pyogenes DHFR = S. pyogenes DHFR (Streptococcus pyogenes, UniProt Q9A091); assay: S. pyogenes DHFR enzyme inhibition assay; assay type: biochemical; details: for Selectivity (h/Sp): IC50 (human)/IC50 (pathogen); for IC50: average of at least three measurements
Chain of S. pyogenes DHFR (Q9A091 1-165): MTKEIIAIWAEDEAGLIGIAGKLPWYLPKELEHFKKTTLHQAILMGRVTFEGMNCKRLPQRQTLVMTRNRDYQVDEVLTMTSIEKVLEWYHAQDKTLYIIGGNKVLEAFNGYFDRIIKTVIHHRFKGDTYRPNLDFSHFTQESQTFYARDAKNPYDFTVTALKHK
Description: (§4) Enzyme inhibition assays were performed by monitoring the rate of NADPH oxidation by the DHFR enzyme at an absorbance of 340 nm. Assays were performed in the presence of saturating concentrations of NADPH and initiated with dihydrofolate. All assays were completed at 25° C. in a buffer containing 20 mM TES pH 7.0, 50 mM KCl, 10 mM 2-mercaptoethanol, 0.5 mM EDTA and 1 mg/mL BSA. Inhibition was measured at least three times with inhibitor concentrations near the IC50 value and the average IC50 value is reported with a standard deviation.

S. aureus DHFR = S. aureus DHFR (Staphylococcus aureus, UniProt P0A017); assay type: biochemical; details: for Selectivity (h/Sa): IC50 (human)/IC50 (pathogen); for IC50: average of at least three measurements
Description: as §4

HepG2 cells = assay: Mammalian cell toxicity, HepG2; assay type: cell-based; details: cytotoxicity
Description: as §3

S. aureus 13709 (MRSA) = assay: Antibacterial MIC, broth microdilution with Alamar Blue; assay type: cell-based, Staphylococcus aureus; details: for Selectivity MRSA: IC50 (MCF10)/MIC (pathogen); for MIC MRSA: Table 6
Description: as §2

hDHFR = hDHFR (Homo sapiens (Human), UniProt P00374); assay: hDHFR enzyme inhibition assay; assay type: biochemical
Chain of hDHFR (P00374 whole entry): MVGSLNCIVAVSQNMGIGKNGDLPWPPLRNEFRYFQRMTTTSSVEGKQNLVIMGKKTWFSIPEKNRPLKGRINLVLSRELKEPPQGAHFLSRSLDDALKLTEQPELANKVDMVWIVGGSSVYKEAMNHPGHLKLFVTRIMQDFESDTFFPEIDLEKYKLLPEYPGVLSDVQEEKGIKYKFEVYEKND
Description: hDHFR: The gene for hDHFR was amplified using PCR from cDNA obtained from ATCC. The gene was inserted in a pET41 vector with a C-terminal histidine tag for affinity chromatography. The resulting construct was verified by sequencing. The hDHFR protein was expressed in E. coli and purified using a nickel affinity column.
as §1, §4

[1] = Table 5, average of at least three measurements, read-out: IC50 human
[2] = Table 7, read-out: IC50 (hDHFR)
[3] = Table 7, read-out: IC50 (CgDHFR)

Chain of TgDHFR (Q07422 71-250, added parts left off, stated change not applied): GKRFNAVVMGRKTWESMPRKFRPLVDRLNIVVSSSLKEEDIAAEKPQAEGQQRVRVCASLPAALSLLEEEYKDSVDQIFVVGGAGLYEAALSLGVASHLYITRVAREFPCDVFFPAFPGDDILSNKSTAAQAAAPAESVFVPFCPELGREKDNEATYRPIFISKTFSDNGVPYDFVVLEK

| Compound | IC50 (ChDHFR-TS; IC50 against ChDHFR) | Selectivity S. pyogenes (Streptococcus pyogenes) | MIC S. pyogenes (Streptococcus pyogenes) | IC50 (MCF-10 cells; Table 6) | Selectivity (h/Sp) (S. pyogenes DHFR) | IC50 (S. pyogenes DHFR) | Selectivity (h/Sa) (S. aureus DHFR) | IC50 (S. aureus DHFR) | IC50 (HepG2 cells; Table 6) | Selectivity MRSA (S. aureus 13709 (MRSA)) | MIC MRSA (S. aureus 13709 (MRSA)) | IC50 (hDHFR; [1]) | other results |
| --- | --- | --- | --- | --- | --- | --- | --- | --- | --- | --- | --- | --- | --- |
| COc1cc([C@@H](C)C#Cc2c(C)nc(N)nc2N)cc(OC)c1OC (racemic) [Compound X, 6-methyl-5-[3-(3,4,5-trimethoxyphenyl)but-1-yn-1-yl]pyrimidine-2,4-diamine] | < 100000 nM |  |  |  |  |  |  |  |  |  |  |  | IC50 (TgDHFR; read-out: IC50 against TgDHFR): < 100000 nM; MIC (C. glabrata; Nakaseomyces glabratus, C. glabrata, Inact: not active at 2 mM (~600 μg/mL), read-out: Antifungal activity MIC): 21 µg/mL (≈ 61.3 µM); antifungal properties against C. glabrata (C. glabrata; result in words): exhibited antifungal properties; IC50 (ChDHFR-TS; IC50 (ChDHFR), Table 4): 169 ± 6 nM; IC50 (ChDHFR-TS; read-out: IC50 against ChDHFR): 38 nM; IC50 (CgDHFR; CgDHFR IC50, Table 3): 25 nM; IC50 (CgDHFR; IC50 against CgDHFR): ≤ 25 nM |
| COc1cc([C@@H](C)C#Cc2c(C)nc(N)nc2N)cc(OC)c1OC [137(R), 2,4-Diamino-5-((R)-3-(3,4,5-trimethoxyphenyl)but-1-ynyl)-6-methylpyrimidine] | < 100000 nM |  |  |  |  |  |  |  |  |  |  |  | IC50 (TgDHFR): < 100000 nM |
| COc1cc([C@H](C)C#Cc2c(C)nc(N)nc2N)cc(OC)c1OC [138(S), 2,4-Diamino-5-((S)-3-(3,4,5-trimethoxyphenyl)but-1-ynyl)-6-methylpyrimidine] | < 100000 nM |  |  |  |  |  |  |  |  |  |  |  | IC50 (TgDHFR): < 100000 nM |
| CCc1nc(N)nc(N)c1C#CC(C)c1cc(-c2ccccc2)ccc1OC (stereo not drawn) [Compound 146] |  | 675 | 0.08 µg/mL (≈ 0.215 µM) | 54000 nM | 4 | 26 ± 2.5 nM | 1.5 | 67 ± 5.5 nM | 77000 nM | 72 | 0.744 µg/mL (≈ 2 µM) | 100 ± 10 nM |  |
| CCc1nc(N)nc(N)c1C#CCc1cccc(-c2ccncc2)c1 [Compound 151] |  | 11,875 | 0.04 µg/mL (≈ 0.121 µM) | 475000 nM | 17 | 30 ± 1.7 nM | 26 | 20 ± 0.5 nM | > 500000 nM | 11,585 | 0.041 µg/mL (≈ 0.124 µM) | 520 ± 23 nM |  |
| COc1cc(CC#Cc2cnc(N)nc2N)cc(OC)c1OC [Compound 1, 5-[3-(3,4,5-trimethoxyphenyl)prop-1-yn-1-yl]pyrimidine-2,4-diamine] | < 100000 nM |  |  |  |  |  |  |  |  |  |  |  | IC50 (TgDHFR): < 100000 nM; Antifungal activity MIC (C. glabrata; C. glabrata, Inact: not active at 2 mM (~600 μg/mL)): Inact*; IC50 (CgDHFR; CgDHFR IC50, Table 3): 33 nM |
| CCc1nc(N)nc(N)c1C#CC(C)c1cc(OC)cc(-c2ccncc2)c1 (stereo not drawn) [Compound 148] |  |  | 0.012 µg/mL (≈ 0.0321 µM) | 85000 nM |  | 180 ± 19 nM |  | 19 ± 1 nM | 171000 nM |  | 0.09 µg/mL (≈ 0.241 µM) | 1300 ± 11 nM | IC50 (MCF-10 cells; Table 8): 85000 nM; MIC (Cg) (C. glabrata; C. glabrata): 1.5 µg/mL (≈ 4.02 µM); MIC C. glabrata (C. glabrata; IsoSensitest media supplemented with 2% glucose (thymidine-depleted)): 0.36 µg/mL (≈ 0.964 µM); antifungal MIC C. glabrata (C. glabrata): 1.4 to 1.5 µg/mL; IC50 (HepG2 cells; Table 8): 171000 nM; IC50 (hDHFR; [2]): 1300 ± 11 nM; IC50 (CgDHFR; [3]): 89 ± 8 nM |
| CCc1nc(N)nc(N)c1C#CCc1cc(-c2ccncc2)ccc1OC [Compound 149] |  | 3,867 | 0.09 µg/mL (≈ 0.25 µM) | 217000 nM | 17 | 19 ± 1.3 nM | 16 | 21 ± 1 nM | 199000 nM | >20,000 | 0.01 µg/mL (≈ 0.0278 µM) | 330 ± 12 nM |  |
| COc1cc(-c2ccncc2)cc(C(C)C#Cc2c(C)nc(N)nc2N)c1 (stereo not drawn) [Compound 147] |  |  | 0.012 µg/mL (≈ 0.0334 µM) | 220000 nM |  | 160 ± 9 nM |  | 26 ± 2 nM | 233000 nM |  | 0.09 µg/mL (≈ 0.25 µM) | 1500 ± 8 nM | MIC (Cg) (C. glabrata; C. glabrata): 1.4 µg/mL (≈ 3.9 µM); antifungal MIC C. glabrata (C. glabrata): 1.4 to 1.5 µg/mL; IC50 (hDHFR; [2]): 1500 ± 83 nM; IC50 (CgDHFR; [3]): 97 ± 9 nM |
| CCc1nc(N)nc(N)c1C#CCc1cccc(-c2cccnc2)c1 [Compound 154] |  | >20,000 | 0.08 µg/mL (≈ 0.243 µM) | > 500000 nM | 6 | 47 ± 4.6 nM | 9 | 33 ± 0.5 nM | > 500000 nM | >20,000 | 0.041 µg/mL (≈ 0.124 µM) | 290 ± 15 nM |  |
| CCc1nc(N)nc(N)c1C#CCc1cc(OC)cc(-c2ccncc2)c1 [Compound 150] |  | 10,225 | 0.04 µg/mL (≈ 0.111 µM) | 409000 nM | 2 | 28 ± 4 nM | 5 | 12 ± 2.4 nM | 465000 nM | 9,089 | 0.045 µg/mL (≈ 0.125 µM) | 61 ± 5.7 nM |  |
